Laboratory results: PubChem BioAssay (NCI)
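Exposure lasted 48 hours, with cells grown in 96-well plates and compounds tested at five concentrations. GI50 = concentration required for 50% inhibition of growth. TGI: total growth inhibition.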

What was measured:
Assay in all cases: DTP human tumour cell line panel, 48 h
786-0 renal = test system: 786-0 renal
A498 renal = test system: A498 renal
ACHN renal = test system: ACHN renal
BT-549 breast = test system: BT-549 breast
CAKI-1 renal = test system: CAKI-1 renal
CCRF-CEM leukemia = test system: CCRF-CEM leukemia
COLO 205 colon = test system: COLO 205 colon
DU-145 prostate = test system: DU-145 prostate
EKVX NSCLC = test system: EKVX NSCLC
HCC-2998 colon = test system: HCC-2998 colon
HCT-116 colon = test system: HCT-116 colon
HCT-15 colon = test system: HCT-15 colon
HL-60(TB) leukemia = test system: HL-60(TB) leukemia
HOP-62 NSCLC = test system: HOP-62 NSCLC
HOP-92 NSCLC = test system: HOP-92 NSCLC
HS 578T breast = test system: HS 578T breast
HT29 colon = test system: HT29 colon
K-562 leukemia = test system: K-562 leukemia
KM12 colon = test system: KM12 colon
LOX IMVI melanoma = test system: LOX IMVI melanoma
M14 melanoma = test system: M14 melanoma
MALME-3M melanoma = test system: MALME-3M melanoma
MCF7 breast = test system: MCF7 breast
MDA-MB-231 breast = test system: MDA-MB-231 breast
MDA-MB-435 = test system: MDA-MB-435
MOLT-4 leukemia = test system: MOLT-4 leukemia
NCI-H226 lung = test system: NCI-H226 lung
NCI-H23 lung = test system: NCI-H23 lung
NCI-H460 lung = test system: NCI-H460 lung
NCI-H522 lung = test system: NCI-H522 lung
NCI/ADR-RES ovarian = test system: NCI/ADR-RES ovarian
OVCAR-3 ovarian = test system: OVCAR-3 ovarian
OVCAR-4 ovarian = test system: OVCAR-4 ovarian
OVCAR-5 ovarian = test system: OVCAR-5 ovarian
OVCAR-8 ovarian = test system: OVCAR-8 ovarian
PC-3 prostate = test system: PC-3 prostate
RPMI-8226 leukemia = test system: RPMI-8226 leukemia
RXF 393 renal = test system: RXF 393 renal
SF-268 CNS = test system: SF-268 CNS
SF-295 CNS = test system: SF-295 CNS
SF-539 CNS = test system: SF-539 CNS
SK-MEL-2 melanoma = test system: SK-MEL-2 melanoma
SK-MEL-5 melanoma = test system: SK-MEL-5 melanoma
SK-OV-3 ovarian = test system: SK-OV-3 ovarian
SN12C renal = test system: SN12C renal
SNB-19 CNS = test system: SNB-19 CNS
SNB-75 CNS = test system: SNB-75 CNS
SW-620 colon = test system: SW-620 colon
T-47D breast = test system: T-47D breast
TK-10 renal = test system: TK-10 renal
U251 CNS = test system: U251 CNS
UACC-257 melanoma = test system: UACC-257 melanoma
UACC-62 melanoma = test system: UACC-62 melanoma
UO-31 renal = test system: UO-31 renal

SMILES: CCn1cc(C(=O)N/N=C/c2ccc(Br)cc2)c(=O)c2cc(F)c(N3CCNC(C)C3)c(F)c21 (stereo not drawn)
- GI50 (786-0 renal): 1680 nM
- TGI (786-0 renal): 3210 nM
- GI50 (A498 renal): 1780 nM
- TGI (A498 renal): 5300 nM
- GI50 (ACHN renal): 1690 nM
- TGI (ACHN renal): 3060 nM
- GI50 (BT-549 breast): 1590 nM
- TGI (BT-549 breast): 3230 nM
- GI50 (CAKI-1 renal): 1680 nM
- TGI (CAKI-1 renal): 3080 nM
- GI50 (CCRF-CEM leukemia): 1490 nM
- TGI (CCRF-CEM leukemia): 3520 nM
- GI50 (COLO 205 colon): 1760 nM
- TGI (COLO 205 colon): 3420 nM
- GI50 (DU-145 prostate): 1740 nM
- TGI (DU-145 prostate): 3180 nM
- GI50 (EKVX NSCLC): 1590 nM
- TGI (EKVX NSCLC): 3110 nM
- GI50 (HCC-2998 colon): 1880 nM
- TGI (HCC-2998 colon): 3570 nM
- GI50 (HCT-116 colon): 1540 nM
- TGI (HCT-116 colon): 3160 nM
- GI50 (HCT-15 colon): 1440 nM
- TGI (HCT-15 colon): 2930 nM
- GI50 (HL-60(TB) leukemia): 1880 nM
- TGI (HL-60(TB) leukemia): 3800 nM
- GI50 (HOP-62 NSCLC): 1720 nM
- TGI (HOP-62 NSCLC): 3170 nM
- GI50 (HOP-92 NSCLC): 1210 nM
- TGI (HOP-92 NSCLC): 2580 nM
- GI50 (HS 578T breast): 1990 nM
- TGI (HS 578T breast): 5900 nM
- GI50 (HT29 colon): 1680 nM
- TGI (HT29 colon): 3180 nM
- GI50 (K-562 leukemia): 1500 nM
- TGI (K-562 leukemia): 3170 nM
- GI50 (KM12 colon): 1860 nM
- TGI (KM12 colon): 3500 nM
- GI50 (LOX IMVI melanoma): 1750 nM
- TGI (LOX IMVI melanoma): 3250 nM
- GI50 (M14 melanoma): 1910 nM
- TGI (M14 melanoma): 3590 nM
- GI50 (MALME-3M melanoma): 1780 nM
- TGI (MALME-3M melanoma): 3420 nM
- GI50 (MCF7 breast): 1560 nM
- TGI (MCF7 breast): 3130 nM
- GI50 (MDA-MB-231 breast): 1840 nM
- TGI (MDA-MB-231 breast): 3370 nM
- GI50 (MDA-MB-435): 1730 nM
- TGI (MDA-MB-435): 3150 nM
- GI50 (MOLT-4 leukemia): 1680 nM
- TGI (MOLT-4 leukemia): 3470 nM
- GI50 (NCI-H226 lung): 2150 nM
- TGI (NCI-H226 lung): 6130 nM
- GI50 (NCI-H23 lung): 1840 nM
- TGI (NCI-H23 lung): 3540 nM
- GI50 (NCI-H460 lung): 1610 nM
- TGI (NCI-H460 lung): 3160 nM
- GI50 (NCI-H522 lung): 1850 nM
- TGI (NCI-H522 lung): 3550 nM
- GI50 (NCI/ADR-RES ovarian): 1950 nM
- TGI (NCI/ADR-RES ovarian): 3690 nM
- GI50 (OVCAR-3 ovarian): 1790 nM
- TGI (OVCAR-3 ovarian): 3380 nM
- GI50 (OVCAR-4 ovarian): 2480 nM
- TGI (OVCAR-4 ovarian): 7540 nM
- GI50 (OVCAR-5 ovarian): 1730 nM
- TGI (OVCAR-5 ovarian): 3220 nM
- GI50 (OVCAR-8 ovarian): 1740 nM
- TGI (OVCAR-8 ovarian): 3320 nM
- GI50 (PC-3 prostate): 1620 nM
- TGI (PC-3 prostate): 3140 nM
- GI50 (RPMI-8226 leukemia): 1850 nM
- TGI (RPMI-8226 leukemia): 3820 nM
- GI50 (RXF 393 renal): 1630 nM
- TGI (RXF 393 renal): 3070 nM
- GI50 (SF-268 CNS): 1780 nM
- TGI (SF-268 CNS): 3450 nM
- GI50 (SF-295 CNS): 1850 nM
- TGI (SF-295 CNS): 3510 nM
- GI50 (SF-539 CNS): 1690 nM
- TGI (SF-539 CNS): 3100 nM
- GI50 (SK-MEL-2 melanoma): 2020 nM
- TGI (SK-MEL-2 melanoma): 4100 nM
- GI50 (SK-MEL-5 melanoma): 1940 nM
- TGI (SK-MEL-5 melanoma): 4030 nM
- GI50 (SK-OV-3 ovarian): 1930 nM
- TGI (SK-OV-3 ovarian): 3680 nM
- GI50 (SN12C renal): 1570 nM
- TGI (SN12C renal): 3010 nM
- GI50 (SNB-19 CNS): 1700 nM
- TGI (SNB-19 CNS): 3080 nM
- GI50 (SNB-75 CNS): 1570 nM
- TGI (SNB-75 CNS): 2990 nM
- GI50 (SW-620 colon): 1710 nM
- TGI (SW-620 colon): 3180 nM
- GI50 (T-47D breast): 1650 nM
- TGI (T-47D breast): 3470 nM
- GI50 (TK-10 renal): 1740 nM
- TGI (TK-10 renal): 3170 nM
- GI50 (U251 CNS): 1660 nM
- TGI (U251 CNS): 3120 nM
- GI50 (UACC-257 melanoma): 1680 nM
- TGI (UACC-257 melanoma): 3210 nM
- GI50 (UACC-62 melanoma): 1880 nM
- TGI (UACC-62 melanoma): 3360 nM
- GI50 (UO-31 renal): 1560 nM
- TGI (UO-31 renal): 2920 nM
